PubChem BioAssay (NCI)
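How tested: cells in 96-well plates exposed to compound for 48 hours at five concentrations. GI50 marks 50% less growth. Definition used: TGI = concentration required for complete inhibition of growth.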

Experiments:
Assay in all cases: inhibition of tumour cell growth, NCI panel, 48 h
[1] = tested on: BT-549 breast
[2] = tested on: EKVX NSCLC
[3] = tested on: HCT-116 colon
[4] = tested on: HL-60(TB) leukemia
[5] = tested on: M14 melanoma
[6] = tested on: OVCAR-4 ovarian
[7] = tested on: RPMI-8226 leukemia
[8] = tested on: RXF 393 renal
[9] = tested on: T-47D breast
[10] = tested on: SF-295 CNS

Compound | TGI [1] | TGI [2] | TGI [3] | TGI [4] | TGI [5] | TGI [6] | TGI [7] | TGI [8] | TGI [9] | TGI [10] | GI50 [1]
N=c1oc2ccc([N+](=O)[O-])cc2cc1C(=O)Nc1ccccn1 | > 100 µM | > 100 µM | > 100 µM | > 100 µM | > 100 µM | > 100 µM | > 100 µM | > 100 µM | > 100 µM |  | 
CCOC(=O)CCC(NC(=O)c1ccc(OCc2ccc3nc(OC)c(OC)nc3c2)cc1)C(=O)OCC (stereo not drawn) | > 100 µM |  | > 100 µM | 73.5 µM | 96.8 µM |  | > 100 µM | 90.7 µM | > 100 µM | > 100 µM | 
NC(CCC(=O)NC(CSC(=O)N(O)c1ccc(Cl)cc1)C(=O)NCC(=O)O)C(=O)O (stereo not drawn) | > 0.5 µM | > 0.5 µM | > 0.5 µM |  | > 0.5 µM | > 0.5 µM | > 0.5 µM | > 0.5 µM |  | > 0.5 µM | 
CC(=O)N1N=C(c2ccccc2Nc2ccccc2C2=NN(C(C)=O)C(c3ccccc3)O2)OC1c1ccccc1 (stereo not drawn) | > 100 µM | > 100 µM | > 100 µM |  | > 100 µM | > 100 µM | > 100 µM | > 100 µM | > 100 µM | > 100 µM | 
Cc1cc(O)c2c(c1)C(=O)C=C(Br)C2=O | 30.6 µM | > 61.2 µM | 30.8 µM | 1.71 µM | 29.5 µM | 24 µM | 23 µM |  | 14.9 µM | > 60.5 µM | 
O=C(Nc1ccc(Cl)cc1Cl)c1cc2nc3ccccc3c(=O)n2c2ccccc12 | > 10 µM | > 10 µM | > 10 µM | > 10 µM | > 10 µM |  |  | > 10 µM | > 10 µM | > 10 µM | 
O=C1CC(NC2CC(=O)c3c(Br)sc(Br)c32)c2c(Br)sc(Br)c21 (stereo not drawn) | 38.9 µM | 22.7 µM | 6.46 µM | 7.65 µM | 11.9 µM | > 78.1 µM |  | 8.86 µM | 8.25 µM | 27.8 µM | 
CC(C)(C)C(=O)CC(=O)C(F)(F)C(F)(F)C(F)(F)F.CC(C)(C)C(=O)CC(=O)C(F)(F)C(F)(F)C(F)(F)F.CC(C)(C)C(=O)CC(=O)C(F)(F)C(F)(F)C(F)(F)F.[Er] | > 100 µM | 96.8 µM | > 100 µM | > 100 µM | > 100 µM | > 100 µM | > 100 µM |  | > 100 µM | > 100 µM | > 100 µM
O=[N+]([O-])c1ccc(OP(=O)(O)OCC2OC(CP(=O)(O)O)C(O)C2O)cc1 (stereo not drawn) | > 100 µM | > 100 µM | > 100 µM | > 100 µM | > 100 µM | > 100 µM |  | > 100 µM | > 100 µM | > 100 µM | 
Cc1ccccc1C(=O)NC(O)(C(F)(F)F)C(F)(F)F |  | > 100 µM | > 100 µM | > 100 µM | > 100 µM | > 100 µM | > 100 µM | > 100 µM | > 100 µM | > 100 µM | 
Clc1cc2nnn(C3CCCCO3)c2cc1Cl (stereo not drawn) | > 100 µM | 79.4 µM | > 100 µM |  | > 100 µM | > 100 µM | > 100 µM | > 100 µM | > 100 µM | > 100 µM | 
N#Cc1c(N)nc2c(N=Nc3ccccc3)c(N)nn2c1Nc1ccccc1 | 50.6 µM | > 100 µM | 27 µM | 6.56 µM | 31.5 µM | 46.4 µM | 16.2 µM | 29.2 µM |  | 59.9 µM | 
C=C(C)C1Cc2c(cc(OC)c3c(=O)c4ccccc4n(C)c23)O1 (stereo not drawn) |  | > 100 µM | > 100 µM | > 100 µM | > 100 µM | > 100 µM | > 100 µM | > 100 µM |  | > 100 µM | 
CN(C)C=NCc1ccc2c(c1)OCO2 |  | > 100 µM | > 100 µM |  | > 100 µM | > 100 µM | > 100 µM | > 100 µM | > 100 µM | > 100 µM | 
COC(=O)C(=O)c1cc2ccccc2n1S(=O)(=O)c1ccccc1 | > 100 µM | > 100 µM | > 100 µM | > 100 µM | > 100 µM | > 100 µM |  | > 100 µM | > 100 µM | > 100 µM | 
CSC1=N/C(=C\c2ccccc2)C(=O)N1CN1CCOCC1 |  | > 100 µM | > 100 µM | > 100 µM | > 100 µM | 90.8 µM | > 100 µM |  |  | > 100 µM | 
OCCSCc1cc(Cl)cc(Cl)c1O | > 100 µM | > 100 µM | > 100 µM |  | > 100 µM | > 100 µM | > 100 µM | > 100 µM | > 100 µM | > 100 µM | 
CCSC1=C(C#N)C2(CCCCC2)C2=C(CC(C)(C)CC2=O)N1 | 60.1 µM | 68.4 µM | > 100 µM | > 100 µM | > 100 µM | 73.2 µM | > 100 µM | > 100 µM | > 100 µM |  | 
C=CCC1(O)C(=O)OC2C(O)COC21O (stereo not drawn) | > 100 µM | > 100 µM | > 100 µM | > 100 µM | > 100 µM | > 100 µM |  | > 100 µM | > 100 µM | > 100 µM | 
O=C1NC2(NC(=O)C1=O)Nc1ccccc1S2 |  | > 100 µM | 38.9 µM | > 64.8 µM | > 100 µM | > 100 µM | 57.9 µM | > 100 µM |  | > 100 µM | 
CC(=O)[C@H]1[C@@H](OCc2ccccc2)O[N+]([O-])=C(C)[C@@H]1c1ccccc1 |  | > 100 µM |  | 40.8 µM | > 100 µM | > 100 µM | 37.9 µM | 34.2 µM | 58.1 µM | > 100 µM | 
CC(C)(C)OC(=O)N1CCCC1C(=O)NCCNc1ccc(NCCNC(=O)C2CCCN2C(=O)OC(C)(C)C)c2c1C(=O)c1ccccc1C2=O (stereo not drawn) | 25.7 µM | > 100 µM | 26 µM | > 100 µM | 29.8 µM | 51.4 µM | 0.0538 µM |  |  | 32 µM | 
O=S(=O)(c1ccccc1)[C@@H]1[C@H]2C=C[C@](CS)(O2)[C@H]1S(=O)(=O)c1ccccc1 | > 100 µM | > 100 µM | 26 µM | > 100 µM | > 100 µM | > 100 µM |  | > 100 µM | > 100 µM | > 100 µM | 
